Experimental data taken from patent publication US20090221665A1, “Organic Compounds” (priority 2005, published 2009).

Tested on: male rats
Test: Fecal pellet output in male rats after i.p. dosing
Assay type: in vivo, rat
Settings: for fecal pellet output (in words): dosed alone, every 30 mins for 2 hr
Procedure: Methods: In male rats (200-300 g) fecal pellet output was measured every 30 mins for 2 hr following administration of tegaserod (0.01-1.0 mg/kg i.p.), neostigmine (0.01-0.1 mg/kg i.p.) or a combination of both compounds.

## CN(C)C(=O)Oc1cccc([N+](C)(C)C)c1 [Neo, neostigmine]
Neo 0.01 mg/kg i.p. alone, 30 min
  # Fecal Pellets: 0.67 ± 0.33
Neo 0.01 mg/kg i.p. alone, 60 min
  # Fecal Pellets: 1.00 ± 0.58
Neo 0.01 mg/kg i.p. alone, 90 min
  # Fecal Pellets: 1.00 ± 0.58
Neo 0.01 mg/kg i.p. alone, 120 min
  # Fecal Pellets: 1.33 ± 0.67
Neostigmine 0.01-0.1 mg/kg i.p.
  fecal pellet output (in words): dose and time-dependent increase in fecal pellet output

## CCCCCNC(=N)N/N=C/c1c[nH]c2ccc(OC)cc12 [Teg, 3-(5-methoxy-1H-indol-3-yl-methylene)-N-pentylcarbazimidamide]
Teg 0.01 mg/kg i.p. alone, 30 min
  # Fecal Pellets: 0.17 ± 0.17
Teg 0.01 mg/kg i.p. alone, 60 min
  # Fecal Pellets: 0.17 ± 0.17
Teg 0.01 mg/kg i.p. alone, 90 min
  # Fecal Pellets: 0.33 ± 0.21
Teg 0.01 mg/kg i.p. alone, 120 min
  # Fecal Pellets: 1.50 ± 0.62
Teg 0.1 mg/kg i.p. alone, 30 min
  # Fecal Pellets: 0.83 ± 0.32
Teg 0.1 mg/kg i.p. alone, 60 min
  # Fecal Pellets: 1.25 ± 0.35
Teg 0.1 mg/kg i.p. alone, 90 min
  # Fecal Pellets: 1.50 ± 0.34
Teg 0.1 mg/kg i.p. alone, 120 min
  # Fecal Pellets: 1.83 ± 0.39
Tegaserod 0.01-1.0 mg/kg i.p.
  fecal pellet output (in words): dose and time-dependent increase in fecal pellet output
